# Positions of bridges follow the written chain, without caps; N, C: chain ends. Non-standard residues stand in square brackets, D forms with d. Residues, ends and D or L forms follow the SMILES beside them. *: point of attachment. 5FAM = O=C1OC2(c3ccc(O)cc3Oc3cc(O)ccc32)c2ccc(C(=O)*)cc21; S5 = C=CCCC[C@](C)(N)C(=O)O; Nle = CCCC[C@H](N)C(=O)O
# Columns and labels:
# E. coli MG1655 = assay: Peptide uptake in E. coli by flow cytometry; assay type: cell-based; settings: 5 μM FAM-labeled peptide in PBS, 2 h, 37 °C, E. coli MG1655, trypan blue quench, mean ± SD
# Method: E. coli MG1655 strain was grown in LB medium to an OD600 of around 0.5. Approximately 10^7 cells were washed once with PBS and subsequently incubated with 5 μM of the indicated 5(6)-carboxyfluorescein-labeled Phd^52–73 peptide in PBS (500 μL) for 2 h at 37 °C. Bacteria were washed twice with PBS, and trypan blue (1 mg mL^–1) in PBS was added and incubated for 10 min at RT. Bacteria were washed an additional time with PBS and resuspended in 2 mL of PBS. Flow cytometry analysis was performed using a ThermoFisher Attune NxT and a blue laser (BL1) for fluorescein excitation.
# [1] = test system: S. typhimurium (14028s) glmS::mCherry strain; assay: Peptide uptake in S. typhimurium by flow cytometry; assay type: cell-based; settings: RT; for Uptake into S. typhimurium (penetration efficiency) / Uptake into S. typhimurium (% fluorescent cells): 10 μM FAM-labeled peptide; for Uptake into S. typhimurium (penetration efficiency): 4 or 22 h, M9 minimal medium; for Uptake into S. typhimurium (% fluorescent cells): 22 h
# Method: S. typhimurium (14028s) glmS::mCherry strain was grown overnight in LB medium containing 1% glucose. The culture was then diluted to an OD600 of approximately 0.1 into 200 μL of fresh M9 minimal medium supplemented with 0.5% arabinose containing 2 or 10 μM of the indicated 5(6)-carboxyfluorescein-labeled Phd^52–73 peptide. The samples were incubated on the bench at RT for 4 or 22 h with no access to light. Bacteria were then spun down, washed with 1 mL of PBS solution, and finally resuspended in 1 mL of PBS solution for flow cytometry analysis (BD LSR II). Constitutively expressed mCherry was used to discriminate bacteria from the debris in each sample.
# DocSTm toxin = settings: DocSTm 5 μM, peptide 50 μM, pH 8.0; average ± SD, replicates 3-48 (Table S3)
# Summary of the method: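 Thermal shift with 5 μM recombinant Doc toxin and 50 μM Phd peptides in 20 mM K2HPO4, 50 mM (NH4)2SO4, pH 8.0, SYPRO Orange 3×, ramped 25–95 °C. Tm from Boltzmann fit; ΔTm is peptide-bound minus free DocSTm Tm, triplicates.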
# [2] = test system: DocSTm (phosphorylation of EF-TuSTm); assay: Dot blot EF-Tu phosphorylation assay; assay type: biochemical, Salmonella Typhimurium; settings: DocSTm 1 μM, EF-TuSTm 3 μM, peptide 10 μM to 5 nM (3-fold dilutions), 16 h RT, dot blot anti-phosphothreonine; compared at three times the DocSTm concentration; two independent experiments
# Method: Samples were prepared in assay buffer [50 mM HEPES (pH 7.5), 25 mM (NH4)2SO4, 2 mM TCEP, 2 mM MgCl2, and 1 mM ATP] with a final concentration of recombinant Doc at 1 μM, recombinant EF-Tu at 3 μM, and varying concentrations of synthetic Phd peptides (final concentrations: 10 μM to 5 nM). EF-Tu (3 μM) in assay buffer was used as a negative control (no Doc and Phd peptide), while EF-Tu (3 μM) with Doc (1 μM) in assay buffer was used as a positive control (no Doc inhibitor). The final sample volume was 10 μL. Samples were incubated for 16 h at RT and subsequently spotted on a nitrocellulose membrane. Phosphorylated EF-Tu was detected by immunodecoration using a rabbit monoclonal antiphosphothreonine antibody (Abcam, ab218195) at 1:2000 dilution (1 h at 4 °C), followed by incubation with a goat antirabbit IgG (H + L) HRP conjugate antibody (Advansta) at 1:10,000 dilution (1 h at RT). Chemiluminescence was developed using the HRP Luminata Kit (Merck, WBLUR0100) and captured with an ImageQuant LAS4000 Western blot imaging system (GE HealthCare). Each peptide was tested in two independent experiments.
SMILES,Cellular uptake into E. coli (penetration efficiency) (E. coli MG1655),Uptake into S. typhimurium (penetration efficiency) [1],Uptake into S. typhimurium (% fluorescent cells) [1],also measured
CCCC[C@H](NC(=O)[C@H](Cc1c[nH]c2ccccc12)NC(=O)c1ccc2c(c1)C(=O)OC21c2ccc(O)cc2Oc2cc(O)ccc21)C(=O)N[C@@H](CCCNC(=N)N)C(=O)N[C@@H](CC(=O)O)C(=O)N[C@@H](CCC(=O)O)C(=O)N[C@@H](Cc1ccccc1)C(=O)N[C@@H](CCCNC(=N)N)C(=O)N[C@@H](C)C(=O)N[C@H](C(=O)N[C@@H](CCCC)C(=O)N[C@@H](CCCNC(=N)N)C(=O)N[C@H](C(=O)N[C@@H](Cc1c[nH]cn1)C(=O)NCC(=O)N[C@@H](CC(N)=O)C(=O)N[C@@H](CCC(=O)O)C(=O)N[C@@H](CC(C)C)C(=O)N[C@@H](CCCNC(=N)N)C(=O)N[C@@H](CCC(=O)O)C(=O)N[C@@H](CC(C)C)C(=O)N[C@@H](C)C(=O)N[C@@H](CC(=O)O)C(=O)N[C@@H](CCCCN)C(=O)O)C(C)C)[C@@H](C)CC [FAM-19] (5FAM-W[Nle]RDEFRAI[Nle]RVHGNELRELADK-OH),7–14%,,,
CCCC[C@H](NC(=O)[C@H](Cc1c[nH]c2ccccc12)NC(=O)c1ccc2c(c1)C(=O)OC21c2ccc(O)cc2Oc2cc(O)ccc21)C(=O)N[C@@H](CCCNC(=N)N)C(=O)N[C@@H](CC(=O)O)C(=O)N[C@@H](CCC(=O)O)C(=O)N[C@@H](Cc1ccccc1)C(=O)N[C@@H](C)C(=O)N[C@@H](C)C(=O)N[C@H](C(=O)N[C@@H](CCCC)C(=O)N[C@@H](CCCNC(=N)N)C(=O)N[C@H](C(=O)N[C@@H](Cc1c[nH]cn1)C(=O)NCC(=O)N[C@@]1(C)CCCC=CCCC[C@@](C)(C(=O)N[C@@H](CC(C)C)C(=O)N[C@@H](C)C(=O)N[C@@H](CC(=O)O)C(=O)N[C@@H](CCCCN)C(=O)O)NC(=O)[C@H](CCCNC(=N)N)NC(=O)[C@H](CC(C)C)NC(=O)[C@H](CCC(=O)O)NC1=O)C(C)C)[C@@H](C)CC [FAM-18] (5FAM-W[Nle]RDEFAAI[Nle]RVHG[S5]ELR[S5]LADK-OH; staple 15-19),7–14%,9–30%,,
CCCC[C@H](NC(=O)[C@H](Cc1c[nH]c2ccccc12)NC(=O)c1ccc2c(c1)C(=O)OC21c2ccc(O)cc2Oc2cc(O)ccc21)C(=O)N[C@@H](CCCNC(=N)N)C(=O)N[C@@H](CC(=O)O)C(=O)N[C@@H](CCC(=O)O)C(=O)N[C@@H](Cc1ccccc1)C(=O)N[C@@H](C)C(=O)N[C@@H](C)C(=O)N[C@H](C(=O)N[C@@H](CCCC)C(=O)N[C@@H](CCCNC(=N)N)C(=O)N[C@H](C(=O)N[C@@H](Cc1c[nH]cn1)C(=O)NCC(=O)N[C@@H](CC(N)=O)C(=O)N[C@@H](CCC(=O)O)C(=O)N[C@@H](CC(C)C)C(=O)N[C@@H](CCCNC(=N)N)C(=O)N[C@@H](CCC(=O)O)C(=O)N[C@@H](CC(C)C)C(=O)N[C@@H](C)C(=O)N[C@@H](CC(=O)O)C(=O)N[C@@H](CCCCN)C(=O)O)C(C)C)[C@@H](C)CC [FAM-16] (5FAM-W[Nle]RDEFAAI[Nle]RVHGNELRELADK-OH),7–14%,,,
CCCC[C@H](NC(=O)[C@H](Cc1c[nH]c2ccccc12)NC(C)=O)C(=O)N[C@@H](CCCNC(=N)N)C(=O)N[C@@H](CC(N)=O)C(=O)N[C@@H](CCC(=O)O)C(=O)N[C@@H](Cc1ccccc1)C(=O)N[C@@H](CCCNC(=N)N)C(=O)N[C@@H](C)C(=O)N[C@H](C(=O)N[C@@H](CCCC)C(=O)N[C@@H](CCCNC(=N)N)C(=O)N[C@H](C(=O)N[C@@H](Cc1c[nH]cn1)C(=O)NCC(=O)N[C@@]1(C)CCCC=CCCC[C@@](C)(C(=O)N[C@@H](CC(C)C)C(=O)N[C@@H](C)C(=O)N[C@@H](CC(N)=O)C(=O)N[C@@H](CCCCN)C(=O)O)NC(=O)[C@H](CCCNC(=N)N)NC(=O)[C@H](CC(C)C)NC(=O)[C@H](CCC(N)=O)NC1=O)C(C)C)[C@@H](C)CC [Peptide 29] (Ac-W[Nle]RNEFRAI[Nle]RVHG[S5]QLR[S5]LANK-OH; staple 15-19),,,,Average Tm of DocSTm in the presence of peptide (DocSTm toxin): 61.6 ± 0.3 °C; Inhibition of EF-TuSTm phosphorylation by DocSTm (concentration needed for full inhibition) [2]: required a higher concentration for full DocSTm inhibition
CCCC[C@H](NC(=O)[C@H](Cc1c[nH]c2ccccc12)NC(=O)c1ccc2c(c1)C(=O)OC21c2ccc(O)cc2Oc2cc(O)ccc21)C(=O)N[C@@H](CC(=O)O)C(=O)N[C@@H](CC(=O)O)C(=O)N[C@@H](CCC(=O)O)C(=O)N[C@@H](Cc1ccccc1)C(=O)N[C@@H](C)C(=O)N[C@@H](C)C(=O)N[C@H](C(=O)N[C@@H](CCCC)C(=O)N[C@@H](C)C(=O)N[C@H](C(=O)N[C@@H](Cc1c[nH]cn1)C(=O)NCC(=O)N[C@@H](CC(N)=O)C(=O)N[C@@H](CCC(=O)O)C(=O)N[C@@H](CC(C)C)C(=O)N[C@@H](CCCNC(=N)N)C(=O)N[C@@H](CCC(=O)O)C(=O)N[C@@H](CC(C)C)C(=O)N[C@@H](C)C(=O)N[C@@H](CC(=O)O)C(=O)N[C@@H](CCCCN)C(=O)O)C(C)C)[C@@H](C)CC [FAM-1] (5FAM-W[Nle]DDEFAAI[Nle]AVHGNELRELADK-OH),extremely low uptake,,less than 1%,"Uptake into S. typhimurium, in words ([1]; 2 and 10 μM FAM-labeled peptide, 4 and 22 h): very low uptake"
CCCC[C@H](NC(=O)[C@H](Cc1c[nH]c2ccccc12)NC(=O)c1ccc2c(c1)C(=O)OC21c2ccc(O)cc2Oc2cc(O)ccc21)C(=O)N[C@@H](CC(N)=O)C(=O)N[C@@H](CC(N)=O)C(=O)N[C@@H](CCC(=O)O)C(=O)N[C@@H](Cc1ccccc1)C(=O)N[C@@]1(C)CCCC=CCCC[C@@](C)(C(=O)N[C@H](C(=O)N[C@@H](Cc2c[nH]cn2)C(=O)NCC(=O)N[C@@H](CCCNC(=N)N)C(=O)N[C@@H](CCC(N)=O)C(=O)N[C@@H](CC(C)C)C(=O)N[C@@H](CCCNC(=N)N)C(=O)N[C@@H](CCCNC(=N)N)C(=O)N[C@@H](CC(C)C)C(=O)N[C@@H](C)C(=O)N[C@@H](CCCNC(=N)N)C(=O)N[C@@H](CCCCN)C(=O)O)C(C)C)NC(=O)[C@H](CCCC)NC(=O)[C@H]([C@@H](C)CC)NC(=O)[C@H](C)NC1=O [FAM-36] (5FAM-W[Nle]NNEF[S5]AI[Nle][S5]VHGRQLRRLARK-OH; staple 7-11),,9–30%,more than 20%,
